This is an account of results in ChEMBL document CHEMBL1201862, “PubChem BioAssay data set” (2004).

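1) Cells in 96-well plates. 2) Compound, 48 h, 5 concentrations. 3) Linear interpolation between surrounding doses. 4) Unreached endpoint = highest concentration. At the GI50, growth is halved.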 Active and inactive are the calls of the source. No stated cut-off is given here; in the data, active = GI50 up to about 1.1 µM and inactive = higher. Square brackets hold non-standard residues; d marks the D form. Peptide text beside a SMILES is read from it. * marks the point of attachment. X26 = COC1=CC(=O)N(C(=O)[C@@H](O*)C(C)C)[C@H]1Cc1ccccc1; NMeL = CN[C@@H](CC(C)C)C(=O)O; Hexanoyl = CCCCCC(=O)*

Experiment in all cases: NCI anticancer screen, dose series, 48 h
Test [1] relates to NCI/ADR-RES.
The test system of test [2] is SW-620.
For test [3], the system named is SK-MEL-5.
In test [4] the test system is RXF 393.
Test [5] relates to SF-268.
In test [6] the test system is KM12.
Test [7] concerns NCI-H23.
In test [8] the test system is A498.
In test [9] the test system is HT-29.
In test [10] the test system is ACHN.
For test [11], the system named is HCT-15.
Test [12] concerns IGROV-1.
Test [13] deals with HCT-116.
For test [14], the system named is PC-3.
Test [15] concerns K562.
The test system of test [16] is HCC 2998.
Test [17] relates to MDA-MB-231.
The subject of test [18] is SF-295.
Test [19] deals with CAKI-1.
Test [20] concerns OVCAR-8.

For the compound `Cn1cc(C2NC(=O)c3ccccc3N2)c2ccccc21` (configuration not stated), the GI50 in test [1] was 0.491 µM (active); in test [2] it was 0.542 µM (active); in test [3] it was 0.182 µM (active); in [4], 0.681 µM (active); in [5], 3.86 µM (inactive); in test [6], 0.0612 µM (active). The GI50 was 1.31 µM (inactive) in [7]; 0.206 µM (active) in test [8]; 0.191 µM (active) in [9]; 1.75 µM (inactive) in [10]; 0.191 µM in test [11]; 1.51 µM (inactive) in test [12]. Besides, the GI50 in test [13] was 0.587 µM (active); in test [14], 0.188 µM (active); in [15], 0.125 µM (active); in test [16], 1.19 µM (inactive); in test [17], 2.14 µM (inactive); in test [18] it was 0.305 µM (active).

Consider `O=c1[nH]c(=O)n(CCOCP(=O)(O)O)nc1Br`, for which the GI50 in test [1], in [2], in test [3], in test [4], in test [5] and in test [6] was > 100 µM (inactive) each time. Moreover, the GI50 was > 100 µM (inactive) in [7]; > 100 µM (inactive) in test [19]; > 100 µM (inactive) in test [8]; > 100 µM (inactive) in test [9]; > 100 µM (inactive) in test [10]; > 100 µM in test [11]. Besides, the GI50 in test [12], in test [14], in test [16], in test [17] and in test [20] was > 100 µM (inactive) in each case.

`Cc1ccnc(Nc2[nH]c(C(=O)c3ccc(Cl)cc3)c(N)c2C(=S)Nc2ccccc2)c1`: the GI50 in test [1] was 2.57 µM (inactive); in test [2], 25.9 µM (inactive); in [4], 15.9 µM (inactive); in [5], 21.1 µM (inactive); in test [6] it was 10 µM (inactive); in test [7], 19.3 µM (inactive). The GI50 in test [19] is 27.9 µM (inactive); in test [8], 19.1 µM (inactive); in test [9] it was 14.9 µM (inactive); in test [10] it was 21.7 µM (inactive); in test [11] it was 16.1 µM; in test [12], 9.02 µM (inactive). In addition, the GI50 is 14.2 µM (inactive) in test [13]; 20.8 µM (inactive) in test [14]; 18.3 µM (inactive) in test [15]; 14.7 µM (inactive) in test [16]; 16.6 µM (inactive) in [17]; 14.5 µM (inactive) in test [18]. In addition, the GI50 in test [20] was 12.2 µM (inactive).

`CSC(SC)=C(C(=O)O)P(=O)(O)O`: the GI50 in test [1], in [2], in test [3], in test [4], in test [5] and in test [6] was > 100 µM (inactive) throughout. The GI50 in test [7] was > 100 µM (inactive); in [19], > 100 µM (inactive); in [8], > 100 µM (inactive); in [9], > 100 µM (inactive); in test [10] it was > 100 µM (inactive); in test [11], > 100 µM. The GI50 in [12], in test [13], in test [14], in test [16], in [17] and in [18] was > 100 µM (inactive) each time. Besides, the GI50 in test [20] was > 100 µM (inactive).

In the case of `N#Cc1c(N)n(-c2nc3ccccc3s2)c(=O)c2cc([N+](=O)[O-])ccc12`, the GI50 is 6.46 µM (inactive) in test [1]; 26.2 µM (inactive) in test [2]; 7.62 µM (inactive) in test [4]; 15 µM (inactive) in test [5]; 19.7 µM (inactive) in [6]; 9.38 µM (inactive) in test [7]. Moreover, the GI50 in test [19] was 20.9 µM (inactive); in test [8] it was 17.1 µM (inactive); in test [9], 3.5 µM (inactive); in test [10], 20.3 µM (inactive); in test [11], 4.04 µM; in test [13], 4.44 µM (inactive). Further, the GI50 in test [14] was 5.51 µM (inactive); in test [15], 15.7 µM (inactive); in test [16], 9.44 µM (inactive); in test [17], 15.6 µM (inactive); in test [18], 9.2 µM (inactive); in test [20], 16.8 µM (inactive).

With `Cc1cc(-c2cccc3ccccc23)c(C#N)c(=S)n1C1OC(CO)C(O)C(O)C1O` (configuration not stated), the GI50 in [1] was > 100 µM (inactive); in test [2] it was > 100 µM (inactive); in test [3], 67 µM (inactive); in [4], > 100 µM (inactive); in [6], > 100 µM (inactive); in test [7], > 100 µM (inactive). The GI50 in [19] is > 100 µM (inactive); in test [8], > 100 µM (inactive); in test [9] it was > 100 µM (inactive); in [10] it was > 100 µM (inactive); in test [11], > 100 µM; in [12], > 100 µM (inactive). Besides, the GI50 in [13], in test [14], in test [16], in [17], in [18] and in [20] was > 100 µM (inactive) each time.

For the compound `COC(=O)C(O)P(=O)(OC)OC` (configuration not stated), the GI50 in [1], in test [2], in test [3], in test [4], in [5] and in [6] was > 100 µM (inactive) in each case. For the same compound, the GI50 in [7] is > 100 µM (inactive); in test [19], > 100 µM (inactive); in test [8], > 100 µM (inactive); in [9] it was > 100 µM (inactive); in test [10] it was > 100 µM (inactive); in test [11] it was > 100 µM. Also, the GI50 in test [12], in test [13], in test [14], in [15], in test [17] and in [18] was > 100 µM (inactive) each time. Also, the GI50 in [20] is > 100 µM (inactive).

Take `CC(C#N)(NO)C(C)(C#N)NO` (configuration not stated): the GI50 in test [1], in test [2], in test [3], in [4], in test [5] and in test [6] was > 100 µM (inactive) each time. The GI50 is > 100 µM (inactive) in [7]; > 100 µM (inactive) in [19]; > 100 µM (inactive) in test [8]; > 100 µM (inactive) in test [9]; > 100 µM in [11]; > 100 µM (inactive) in [12]. Further, the GI50 in test [13], in test [14], in [15], in [16], in test [17] and in [20] was > 100 µM (inactive) each time.

As to `[N-]=[N+]=Nc1c(-c2ccccc2)c(=O)n(-c2ccccc2)c2ccccc12`, the GI50 in test [1] is 63 µM (inactive); in test [2], > 100 µM (inactive); in test [4], 45.7 µM (inactive); in test [5], 13.2 µM (inactive); in [6], 67.6 µM (inactive); in test [7], 80.5 µM (inactive). In addition, the GI50 in test [8] was 77.8 µM (inactive); in [9], 41.7 µM (inactive); in [10], 49.4 µM (inactive); in [11], 38.2 µM; in test [12], > 100 µM (inactive); in [13] it was 34.7 µM (inactive). Besides, the GI50 in test [14] was 32.4 µM (inactive); in test [15] it was > 100 µM (inactive); in test [16], 35.2 µM (inactive); in test [17] it was 74.3 µM (inactive); in test [18], 49 µM (inactive); in test [20] it was 90.2 µM (inactive).

As for `[O-][Cl+3]([O-])([O-])[O-].[O-][Cl+3]([O-])([O-])[O-].c1ccn2c(N3CCCC3)[n+]3c4ccccc4n4c(N5CCCC5)[n+]5ccccc5c4c3c2c1`, the GI50 in [1] was > 100 µM (inactive); in test [2], > 100 µM (inactive); in [3], 22.2 µM (inactive); in test [4], 38.3 µM (inactive); in test [5], 15.3 µM (inactive); in test [6] it was 40.3 µM (inactive). In addition, the GI50 in test [7] was 54.5 µM (inactive); in [19] it was > 100 µM (inactive); in test [8] it was > 100 µM (inactive); in [10] it was > 100 µM (inactive); in test [11], > 100 µM; in [12], 42.7 µM (inactive). Also, the GI50 in test [13] is > 100 µM (inactive); in test [14] it was 46.5 µM (inactive); in test [15] it was 35.8 µM (inactive); in [16], 78.3 µM (inactive); in [17] it was > 100 µM (inactive); in test [18], 46.3 µM (inactive). Moreover, the GI50 in [20] was 25.4 µM (inactive).

As for `CCCCCC(=O)N[C@H](C(=O)N[C@H](C(=O)N(C)[C@@H](CC(C)C)C(=O)N1CCC[C@H]1C(=O)N1CCC[C@H]1C(=O)O[C@H](C(=O)N1C(=O)C=C(OC)[C@@H]1Cc1ccccc1)C(C)C)C(C)C)C(C)C` (Hexanoyl-VV[NMeL]PP-X26), the GI50 in [1] was > 100 µM (inactive); in [2], > 100 µM (inactive); in test [4] it was 10.1 µM (inactive); in test [5] it was > 41.9 µM (inactive); in [6], > 74.3 µM (inactive); in [7] it was 21.2 µM (inactive). The GI50 in test [19] is 74.6 µM (inactive); in test [8], 51.5 µM (inactive); in test [9] it was > 100 µM (inactive); in test [10], > 100 µM (inactive); in test [11], > 43.4 µM; in test [12] it was > 44.2 µM (inactive). In addition, the GI50 in test [13] is 54.7 µM (inactive); in test [14] it was 27.2 µM (inactive); in [15] it was 10.3 µM (inactive); in test [16] it was > 74.3 µM (inactive); in [17] it was > 64.9 µM (inactive); in [18], > 100 µM (inactive). Also, in test [20], the GI50 was > 100 µM (inactive).
